Among the data in ChEMBL document CHEMBL1201862, “PubChem BioAssay data set” (2004) are EC50, IC50 and AC50 values, retold here.

The test system of data set [1] is HEK293. Kind of data set: NOD1 signaling inhibitors, primary screen, cell-based, luminescence, uHTS (AID 1578). The class given is functional. The following applies: Homo sapiens.
Data set [2] relates to HEK293. Kind of data set: cells. The following applies: Homo sapiens. The class given is functional, cell-based.
Data set [3] has as its system HEK293. Kind of data set: cells. It is filed as functional, cell-based. The following applies: Homo sapiens. This is another data set of the same source.
Data set [4] addresses Nucleotide-binding oligomerization domain-containing protein 2 (Homo sapiens, UniProt Q9HC29). Briefly: NOD2 signaling inhibitors, cell-based, luminescence, uHTS, HEK293 (AID 1566). It is filed as functional.
Data set [5] relates to HEK293. Kind of data set: NOD2 signaling inhibitors in MDP-stimulated cells, cell-based, uHTS, luminescence (AID 2001). The class given is functional. The following applies: Homo sapiens.
For data set [6], the system named is HEK293. Kind of data set: cells. It is filed as functional, cell-based. The following applies: Homo sapiens. This is another data set of the same source.
Data set [7] deals with Nonstructural protein 1 (Influenza A virus, UniProt Q194T2). The class given is functional, Influenza A virus (A/California/07/2009(H1N1)).
Data set [8] concerns Escherichia coli. Briefly: microbe, parasite or virus in culture.
Data set [9] deals with Escherichia coli. Kind of data set: microbe, parasite or virus in culture. This is another data set of the same source.
The subject of data set [10] is HEK293. Kind of data set: cells. The following applies: Homo sapiens.
The test system of data set [11] is HEK293. Kind of data set: cells. The following applies: Homo sapiens. This is another data set of the same source.
The test system of data set [12] is Streptococcus sp. 'group A'. Kind of data set: growth inhibition of control SK(-) GAS strain, dose response, counter-screen for streptokinase expression inhibitor project, luminescence, kanamycin, BacTiterGlo, confirmation (AID 1900). It is filed as functional, organism-based. On the technique in general: The purpose of a counterscreen is to sort out artefacts and off-target activity.

Data set [13] addresses T1, Streptokinase A (Streptococcus pyogenes serotype M1, UniProt P10520).
T1 sequence (P10520 whole entry): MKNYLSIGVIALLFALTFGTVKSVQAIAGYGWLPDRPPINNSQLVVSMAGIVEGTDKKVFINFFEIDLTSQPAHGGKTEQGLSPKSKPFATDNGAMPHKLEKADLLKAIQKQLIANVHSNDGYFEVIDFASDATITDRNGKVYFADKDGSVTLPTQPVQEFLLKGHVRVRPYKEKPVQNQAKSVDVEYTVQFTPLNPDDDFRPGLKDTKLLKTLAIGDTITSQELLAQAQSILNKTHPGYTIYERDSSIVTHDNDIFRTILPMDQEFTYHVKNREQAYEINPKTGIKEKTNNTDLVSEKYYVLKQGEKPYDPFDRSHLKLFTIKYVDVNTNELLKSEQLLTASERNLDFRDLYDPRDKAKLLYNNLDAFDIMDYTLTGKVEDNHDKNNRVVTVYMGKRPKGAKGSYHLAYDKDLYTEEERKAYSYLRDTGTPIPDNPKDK
Kind of data set: S. pyogenes streptokinase expression inhibitors, potency, dose response, plasminogen activation absorbance, OD405 (AID 1914).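 Note: secreted streptokinase activity via plasminogen activation per viability signal from cell pellet.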 The class given is functional, Streptococcus pyogenes M1 GAS.

In data set [14] the test system is Streptococcus. Briefly: Group A Streptococcus viability loss, dose response, counter-screen for streptokinase expression inhibitor project, luminescence, BacTiterGlo (AID 1915).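 Note: potency for reduction of bacterial viability or growth.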 It is filed as functional, organism-based.
Data set [15] has as its target T2, Ubiquitin-conjugating enzyme E2 N (Homo sapiens, UniProt P61088).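 Note: Dose-response confirmation in a TR-FRET assay detecting UBC13-driven polyubiquitin chain formation, inhibition measured.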
T2 sequence (P61088 whole entry): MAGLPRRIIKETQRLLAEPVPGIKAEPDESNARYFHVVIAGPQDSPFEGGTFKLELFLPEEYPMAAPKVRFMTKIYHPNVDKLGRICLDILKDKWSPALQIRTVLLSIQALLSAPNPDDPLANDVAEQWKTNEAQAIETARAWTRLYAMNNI
The class given is functional.

Data set [16] deals with INS1. Kind of data set: beta cell apoptosis inhibitors, cytokine rescue, dose response, luminescence, retest (AID 449756).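 Note: cell death triggered by IL-1 beta plus TNF-alpha plus IFN-gamma mixture; protective hits raise ATP signal compared with cytokine alone wells.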 The class given is functional, cell-based. The following applies: Rattus norvegicus.
Data set [17] deals with Trypsin (Sus scrofa, UniProt P00761). Briefly: porcine trypsin inhibitors, dose response, selectivity assay for Rce1 protease inhibitor project, biochemical, quenched peptide fluorescence, cherry-pick (AID 488789).
Data set [18] addresses CAAX prenyl protease 2 (Saccharomyces cerevisiae S288c, UniProt Q03530). It is filed as biochemical.
For data set [19], the target named is CAAX prenyl protease 2 (Homo sapiens, UniProt Q9Y256). Briefly: human Rce1 protease inhibitors, dose response, biochemical, yeast membranes, quenched-peptide fluorescence, cherry-pick (AID 588849).
For data set [20], the target named is T3, Estrogen receptor (Homo sapiens, UniProt P03372).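 Note: potency for inhibiting coactivator peptide recruitment to the receptor.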
T3 sequence (P03372 whole entry): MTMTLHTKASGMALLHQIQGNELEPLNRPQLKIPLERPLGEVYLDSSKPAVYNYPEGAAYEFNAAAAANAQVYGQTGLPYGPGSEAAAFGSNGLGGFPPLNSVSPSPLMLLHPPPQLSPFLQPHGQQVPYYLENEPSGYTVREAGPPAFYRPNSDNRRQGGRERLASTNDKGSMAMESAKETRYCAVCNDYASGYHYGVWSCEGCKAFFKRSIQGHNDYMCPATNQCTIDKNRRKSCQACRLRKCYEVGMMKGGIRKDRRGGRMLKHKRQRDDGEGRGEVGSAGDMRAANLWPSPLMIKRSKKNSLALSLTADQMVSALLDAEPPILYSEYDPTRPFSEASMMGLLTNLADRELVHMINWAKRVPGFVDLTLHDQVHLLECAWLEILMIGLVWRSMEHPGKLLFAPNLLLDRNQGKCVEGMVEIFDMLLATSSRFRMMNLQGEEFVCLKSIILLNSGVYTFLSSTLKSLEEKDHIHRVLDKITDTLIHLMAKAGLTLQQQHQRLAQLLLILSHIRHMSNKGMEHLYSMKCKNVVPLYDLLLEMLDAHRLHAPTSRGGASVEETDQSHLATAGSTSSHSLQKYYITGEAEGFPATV

Data set [21] has as its target Cytochrome P450 2D6 (Homo sapiens, UniProt P10635).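 Note: CYP2D6 member of a cytochrome P450 panel assay.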
Data set [22] has as its target Cytochrome P450 2C19 (Homo sapiens, UniProt P33261). Kind of data set: Cytochrome panel assay with activity outcomes. Panel member name: p450-cyp2c19 Compounds with AC50 equal or less than 10 uM are considered active. The following applies: read-out: AC50. It is filed as functional.
The target of data set [23] is Cytochrome P450 3A4 (Homo sapiens, UniProt P08684).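 Note: CYP3A4 tested as one member of a cytochrome P450 panel screen.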
Data set [24] deals with Cytochrome P450 2C9 (Homo sapiens, UniProt P11712).

Active and inactive are the calls of the source. Bounds are passed on as bounds.

Chain of Nucleotide-binding oligomerization domain-containing protein 2 (Q9HC29 whole entry, the tested form may be a part): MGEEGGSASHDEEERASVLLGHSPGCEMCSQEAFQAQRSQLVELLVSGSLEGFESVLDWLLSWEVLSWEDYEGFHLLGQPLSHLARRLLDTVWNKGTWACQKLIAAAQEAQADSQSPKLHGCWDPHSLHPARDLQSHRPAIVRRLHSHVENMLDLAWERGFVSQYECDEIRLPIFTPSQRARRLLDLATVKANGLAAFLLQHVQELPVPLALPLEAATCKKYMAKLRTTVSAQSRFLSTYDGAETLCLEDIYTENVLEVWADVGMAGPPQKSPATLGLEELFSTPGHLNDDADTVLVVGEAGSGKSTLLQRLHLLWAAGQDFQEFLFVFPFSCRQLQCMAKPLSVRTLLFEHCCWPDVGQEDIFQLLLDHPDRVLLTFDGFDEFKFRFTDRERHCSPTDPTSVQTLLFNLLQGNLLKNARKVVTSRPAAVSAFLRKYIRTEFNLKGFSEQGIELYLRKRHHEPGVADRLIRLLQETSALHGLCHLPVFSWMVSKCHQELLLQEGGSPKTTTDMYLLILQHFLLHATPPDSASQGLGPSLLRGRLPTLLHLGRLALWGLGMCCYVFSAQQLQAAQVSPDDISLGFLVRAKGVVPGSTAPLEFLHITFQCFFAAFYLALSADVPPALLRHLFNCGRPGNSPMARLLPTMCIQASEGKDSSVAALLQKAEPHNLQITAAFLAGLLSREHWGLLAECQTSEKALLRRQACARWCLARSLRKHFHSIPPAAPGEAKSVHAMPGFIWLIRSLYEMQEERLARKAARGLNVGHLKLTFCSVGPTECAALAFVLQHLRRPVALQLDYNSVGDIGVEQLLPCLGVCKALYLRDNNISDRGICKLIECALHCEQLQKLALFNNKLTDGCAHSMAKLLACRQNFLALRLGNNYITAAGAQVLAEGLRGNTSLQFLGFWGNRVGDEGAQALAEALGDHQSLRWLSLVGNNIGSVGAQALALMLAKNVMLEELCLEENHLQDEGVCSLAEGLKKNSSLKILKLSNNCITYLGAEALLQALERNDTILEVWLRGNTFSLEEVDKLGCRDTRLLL
Chain of Cytochrome P450 2D6 (P10635 whole entry): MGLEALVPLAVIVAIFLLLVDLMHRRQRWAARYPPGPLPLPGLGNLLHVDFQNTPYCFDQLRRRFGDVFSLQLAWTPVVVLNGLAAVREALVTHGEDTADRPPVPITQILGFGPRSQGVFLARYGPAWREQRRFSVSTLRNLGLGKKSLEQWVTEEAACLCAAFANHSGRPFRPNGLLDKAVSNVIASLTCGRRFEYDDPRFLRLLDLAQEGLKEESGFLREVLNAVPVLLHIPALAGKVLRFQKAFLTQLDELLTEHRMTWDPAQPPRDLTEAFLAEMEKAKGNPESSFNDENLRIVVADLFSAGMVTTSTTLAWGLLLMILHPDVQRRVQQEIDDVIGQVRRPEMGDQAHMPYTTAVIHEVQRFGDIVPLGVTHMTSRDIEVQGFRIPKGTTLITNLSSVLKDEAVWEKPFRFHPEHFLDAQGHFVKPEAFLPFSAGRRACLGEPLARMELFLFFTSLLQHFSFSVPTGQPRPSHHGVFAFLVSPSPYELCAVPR
Chain of Trypsin (P00761 whole entry): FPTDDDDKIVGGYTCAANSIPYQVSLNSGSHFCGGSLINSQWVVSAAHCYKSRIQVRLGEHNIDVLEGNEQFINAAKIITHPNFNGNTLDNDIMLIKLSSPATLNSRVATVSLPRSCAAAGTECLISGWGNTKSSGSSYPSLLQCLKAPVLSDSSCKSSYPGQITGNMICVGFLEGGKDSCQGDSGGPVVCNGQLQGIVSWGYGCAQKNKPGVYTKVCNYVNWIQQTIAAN
Chain of CAAX prenyl protease 2 (Homo sapiens, UniProt Q9Y256) (Q9Y256 whole entry): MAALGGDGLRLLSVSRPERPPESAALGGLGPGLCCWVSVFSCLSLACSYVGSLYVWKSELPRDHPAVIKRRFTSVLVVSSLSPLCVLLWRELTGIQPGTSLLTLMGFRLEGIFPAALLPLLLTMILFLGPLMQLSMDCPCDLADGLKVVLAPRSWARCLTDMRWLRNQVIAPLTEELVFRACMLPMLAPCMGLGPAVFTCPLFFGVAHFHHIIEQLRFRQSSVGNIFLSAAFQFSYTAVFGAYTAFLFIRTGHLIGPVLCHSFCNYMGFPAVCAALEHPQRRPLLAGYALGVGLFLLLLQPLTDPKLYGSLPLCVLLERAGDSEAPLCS
Chain of CAAX prenyl protease 2 (Saccharomyces cerevisiae S288c, UniProt Q03530) (Q03530 whole entry): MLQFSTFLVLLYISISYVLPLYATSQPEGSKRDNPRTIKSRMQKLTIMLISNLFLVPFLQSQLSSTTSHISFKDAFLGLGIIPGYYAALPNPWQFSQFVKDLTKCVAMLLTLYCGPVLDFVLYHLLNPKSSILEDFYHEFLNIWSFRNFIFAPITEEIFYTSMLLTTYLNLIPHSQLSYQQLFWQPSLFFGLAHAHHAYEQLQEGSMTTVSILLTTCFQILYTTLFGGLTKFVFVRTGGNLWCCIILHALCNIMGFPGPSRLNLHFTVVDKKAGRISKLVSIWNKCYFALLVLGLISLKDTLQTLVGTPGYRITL
Chain of Cytochrome P450 2C19 (P33261 whole entry): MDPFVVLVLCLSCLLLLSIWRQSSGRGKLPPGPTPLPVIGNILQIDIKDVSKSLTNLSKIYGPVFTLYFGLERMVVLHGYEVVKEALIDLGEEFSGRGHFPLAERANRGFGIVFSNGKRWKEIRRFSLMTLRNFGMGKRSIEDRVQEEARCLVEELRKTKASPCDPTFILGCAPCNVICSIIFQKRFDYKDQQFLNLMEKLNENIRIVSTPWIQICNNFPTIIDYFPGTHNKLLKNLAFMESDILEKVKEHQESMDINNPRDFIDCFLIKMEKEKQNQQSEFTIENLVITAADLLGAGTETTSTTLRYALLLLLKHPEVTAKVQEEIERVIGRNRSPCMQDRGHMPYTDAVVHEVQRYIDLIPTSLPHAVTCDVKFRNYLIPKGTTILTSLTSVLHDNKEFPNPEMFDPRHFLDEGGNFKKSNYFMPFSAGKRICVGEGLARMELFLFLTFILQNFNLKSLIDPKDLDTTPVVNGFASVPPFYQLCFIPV
Chain of Nonstructural protein 1 (Q194T2 whole entry): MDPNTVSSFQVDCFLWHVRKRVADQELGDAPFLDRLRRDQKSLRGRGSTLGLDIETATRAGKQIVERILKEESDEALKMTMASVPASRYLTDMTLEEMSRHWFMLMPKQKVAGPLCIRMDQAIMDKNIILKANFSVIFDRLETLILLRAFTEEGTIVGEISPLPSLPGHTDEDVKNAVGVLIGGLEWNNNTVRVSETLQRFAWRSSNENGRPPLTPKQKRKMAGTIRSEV
Chain of Cytochrome P450 3A4 (P08684 whole entry): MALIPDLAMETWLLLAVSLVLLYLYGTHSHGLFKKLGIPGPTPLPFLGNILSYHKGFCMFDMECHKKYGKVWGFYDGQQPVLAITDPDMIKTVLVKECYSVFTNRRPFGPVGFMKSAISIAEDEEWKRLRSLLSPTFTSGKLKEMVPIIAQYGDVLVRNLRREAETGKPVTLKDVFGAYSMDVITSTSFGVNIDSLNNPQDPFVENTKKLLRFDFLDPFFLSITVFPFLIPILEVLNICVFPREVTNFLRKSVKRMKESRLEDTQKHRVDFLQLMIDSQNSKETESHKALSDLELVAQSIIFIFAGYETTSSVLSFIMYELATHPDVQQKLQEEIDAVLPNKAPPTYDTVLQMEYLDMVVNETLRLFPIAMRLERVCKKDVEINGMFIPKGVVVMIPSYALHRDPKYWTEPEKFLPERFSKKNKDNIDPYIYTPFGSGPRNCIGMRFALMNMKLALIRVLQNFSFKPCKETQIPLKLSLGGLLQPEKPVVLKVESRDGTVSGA
Chain of Cytochrome P450 2C9 (P11712 whole entry): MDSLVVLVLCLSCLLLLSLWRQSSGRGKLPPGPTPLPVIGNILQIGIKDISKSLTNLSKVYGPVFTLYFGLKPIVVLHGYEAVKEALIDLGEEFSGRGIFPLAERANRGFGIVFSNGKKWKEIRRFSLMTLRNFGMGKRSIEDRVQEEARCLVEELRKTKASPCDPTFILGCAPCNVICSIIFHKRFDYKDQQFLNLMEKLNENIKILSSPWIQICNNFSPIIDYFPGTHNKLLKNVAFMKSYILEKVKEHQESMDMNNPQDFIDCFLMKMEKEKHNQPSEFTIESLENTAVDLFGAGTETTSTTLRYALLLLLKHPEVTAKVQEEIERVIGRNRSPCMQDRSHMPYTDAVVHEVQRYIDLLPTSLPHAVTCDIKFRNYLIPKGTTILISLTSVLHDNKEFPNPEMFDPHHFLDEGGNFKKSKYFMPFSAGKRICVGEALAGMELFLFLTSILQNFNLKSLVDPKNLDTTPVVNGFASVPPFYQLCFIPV

Take `CCCn1c(C)cc(C(=O)COc2ccc(C)nc2[N+](=O)[O-])c1C`: the EC50 in data set [1] was > 20 µM (inactive); in [4], 7.64 µM (active). The IC50 was 3.81 µM (active) in [2]; > 20 µM (inactive) in data set [3]; > 20 µM (inactive) in [5]; > 20 µM (inactive) in data set [6]; > 100 µM (active) in [7].

Regarding `COC(=O)c1cc(C(=O)Nc2cc(C)ccn2)cc([N+](=O)[O-])c1`, the AC50 in data set [8] was 132 µM (active); in data set [9], 63.9 µM (active).

Take `N#Cc1c(-c2ccccc2)cc(C2CC2)nc1N`: the EC50 in [10] and in data set [11] was > 59.7 µM (inactive) each time.

`Cc1nc(Nc2cnc(/C=C/c3cc(C(=O)Nc4cccc(C(F)(F)F)c4)ccc3C)cn2)cc(N2CCNCC2)n1`: the concentration for a half-maximal effect (EC50) in data set [1] was 7.82 µM (active); in [12], 6.39 µM (active); in [13], 11.4 µM (active); in [4] it was 8.28 µM (active); in data set [14], > 150 µM (not active). Moreover, the IC50 in [2], in data set [3], in data set [5], in data set [6] and in [15] was > 20 µM (inactive) each time. In data set [16], the AC50 was 8.7 µM (active).

For `COc1ccc(C[C@H]2c3cc(O)c(OC)cc3CC[N+]2(C)[O-])cc1O` (stereo partly drawn), the half-maximal activity concentration (AC50) was 13.9 µM (active) in data set [17], 7.82 µM (active) in data set [18] and 2.8 µM (active) in [19].

Take `Cc1occc1C(=O)NCc1cccc(CNC(=O)c2ccoc2C)c1`: in data set [20], the IC50 was 19.7 µM (active). In addition, in [9], the AC50 is 21.6 µM (active).

With `C#CCCCO/N=C1/[C@H]2O[C@@H]2[C@@H](O)[C@H]2[C@H]1CCn1c(=O)n(C)c(=O)n12`, in data set [21], the AC50 entry is recorded as “inconclusive”.

For `CCN(CC)S(=O)(=O)N1CCC(C(=O)NC2CCCC2)CC1`, the concentration at half-maximal activity (AC50) in data set [22] is 39.8 µM (inconclusive); in [23], 15.8 µM (inconclusive); in data set [24] it was 3.16 µM (inconclusive); in data set [8] it was 26.2 µM (active).

Turning to `CCOC(=O)c1c(NC(=O)/C=C/c2ccc3c(c2)OCO3)sc(C)c1C`, the AC50 result in data set [21] was “inconclusive”.

For orientation: EC50 means the concentration needed to bring the measured effect to its halfway point. For orientation: IC50 means the point on the concentration scale where inhibition reaches its midpoint. As a reminder, the AC50 is the midpoint of the concentration-response curve, whichever way the signal moves.
